According to patent US9296720B2, “Carboxamide-substituted heteroaryl-pyrazoles and the use thereof” (AiCuris GmbH & Co. KG, priority 2011, dated 2016):
Like-named read-outs stand apart in the source and are kept apart here.

Experiments:
Assay type in all cases: cell-based
[1] = tested on: HIV-1NL4-3 K103N-Y181C; test: Luminescence reduction assay, MT4 cells infected with HIV-1NL4-3 luciferase reporter virus, RT mutant K103N-Y181C
From the text: (§1) For this assay, HIV-1NL4-3 reporter viruses are used, which carry the luciferase164 gene (lu164) instead of the nef gene. The viruses are generated by transfection of 293T cells with the corresponding proviral pNL4-3 plasmid (Lipofectamine Reagent, Invitrogen, Karlsruhe, Germany). Starting from the proviral plasmid-DNA, viruses with defined resistance mutations in the reverse transcriptase gene are produced with the “QuikChange II XL Site-Directed Mutagenesis Kit” (Stratagene, Cedar Creek, Tex., USA). Among other things, the following mutations are generated: A98G, A98G-K103N-V108I, A98S, F227C, F227L, G190A, G190S, K101E, K101Q-K103N, K103N, K103N-F227L, K103N-G190A, K103N-G190S, K103N-M230L, K103N-N348I, K103N-P225H, K103N-V108I, K103N-V108I-P225H, K103N-V179F-Y181C, K103N-Y181C, K103N-Y181C-G190A, L100I, L100I-K103N, L100I-K103N-V179I-Y181C, L100I-K103N-Y181C, L234I, N348I, P225H, P236L, V106A, V106A-E138K, V106A-F227C, V106A-F227L, V106I, V106I-Y188L, V106M, V108I, V179F-Y181C, V179I, V179I-Y181C, Y181C, Y181C-G190A, Y181C-M230L, Y181I, Y188L. MT4 cells infected with these reporter viruses (NIH AIDS Research and Reference Reagent Program) secrete luciferase into the medium, which makes possible the luminometric quantification of the virus replication.
(§2) For the batch of a 96-well MTP, 3 million MT4 cells are pelletized, suspended in 1 ml of RPMI 1640 medium without phenol red (Invitrogen, Karlsruhe, Germany)/10% FCS/2 mmol of L-glutamine/1% Pen/Strep (Invitrogen, Karlsruhe, Germany), and incubated together with a suitable amount of the corresponding HIV-1NL4-3 reporter virus for 2 hours at 37° C. (pellet infection). Non-adsorbed viruses are then washed out with PBS, the infected cells are pelletized again, and suspended in 8 ml of RPM 11640 medium without phenol red/2% or 10% FCS/2 mmol of L-glutamine/1% Pen/Strep. Therefrom, 80 μl per well is pipetted into a white 96-well MTP in 20 μl of test substance in a suitable dilution. In order to avoid boundary effects, the edge wells of the MTP are not used for substance dilutions. The second vertical row of the MTP contains only infected cells (virus control), and the eleventh vertical row contains only non-infected cells (cell control) in each case in RPMI 1640 medium without phenol red/2% or 10% FCS/2 mmol of L-glutamine/1% Pen/Strep. The other wells of the MTP contain the compounds according to the invention in different concentrations starting from the third vertical row, from which dilution of the test substances is carried out 3^7 times in three steps up to the tenth vertical row. The test substances are dissolved in DMSO, whereby the DMSO final concentration in the test batch is ultimately 1%. The test batches are incubated for 5 days at 37° C./5% CO2, and are luminometrically evaluated after the addition of 15 μl of Lu164-buffer (65 mmol of NaCl, 300 mmol of MES, pH 5.8, 5 mmol of glutathione and 1:200 coelenterazine (5 mg/ml in 30 μM of glutathione/DMSO) (P.J.K. GmbH, Kleinblittersdorf, Germany)). In the virus control, the resulting values are in the range of 1 million RLUs (relative light units), and in the cell control, the resulting values are 300 to 400 RLUs. The EC50 values of the test substances are determined as the concentration of the treated infected cells, in which the virus replication measured in RLUs is 50% of the untreated infected cells.

[2] = tested on: HIV-1LAI Wild Type; test: AlamarBlue viability assay, HIV-1LAI-infected MT4 cells; details: 10% FCS
Method: For the batch of a 96-well MTP, 3 million PBLs are pelletized, suspended in 1 ml of RPMI 1640 medium/10% FCS/2 mmol of L-glutamine/1% Pen/Strep, and incubated together with a suitable amount of HIV-1LA1 (NIH AIDS Research & Reference Reagent Program, Germantown, USA) for 2 hours at 37° C. (pellet infection). Non-adsorbed viruses are then washed out with PBS, the infected cells are pelletized again, and suspended in 18 ml of RPMI 1640 medium/10% FCS/2 mmol of L-glutamine/1% Pen/Strep/interleukin-2 (40 U/ml). Therefrom, 180 μl per well is pipetted into a white 96-well MTP in 20 μl of test substance in a suitable dilution. As an alternative, after preparation of the substance dilutions, the HIV is added by pipetting in the MTP together with the cells and is no longer washed out (supernatant infection). In order to avoid boundary effects, the edge wells of the MTP are not used for substance dilutions. The second vertical row of the MTP contains only infected cells (virus control), and the eleventh vertical row contains only non-infected cells (cell control) in each case in RPMI 1640 medium/10% FCS/2 mmol of L-glutamine/1% Pen/Strep/interleukin-2 (40 U/ml). The other wells of the MTP contain the compounds according to the invention in different concentrations starting from the third vertical row, from which dilution of the test substances is carried out 3^7 times in three steps up to the tenth vertical row. The test substances are dissolved in DMSO, whereby the DMSO final concentration in the test batch is ultimately 1%. The test batches are incubated at 37° C./5% CO2. After 5 and 7 days, in each case 50 μl of cell-free supernatant is drawn off from each well in order to determine the amount of p24 contained by means of p24 ELISA (HIV-1 p24^CA Antigen Capture Assay Kit, NCI-Frederick Cancer Research and Development Center, Frederick, USA). From the resulting values of the photometric analysis (450/620 nm), the EC50 values of the test substances are determined as the concentration of the treated infected cells, in which the amount of p24 is 50% of the untreated infected cells.
As an alternative, MT4 cells are used for testing test substances instead of PBLs. HIV-1LA1-infected MT4 cells (MOI 0.01, supernatant infection) are incubated according to the above-described pattern in RPMI 1640 medium with 2% or 10% FCS/2 mmol of L-glutamine/1% Pen/Strep in the presence of test substances for 5 days at 37° C./5% CO2 (20 μl of substance dilution and 80 μl of cells/virus per well). Then, 10 μl of AlamarBlue (Invitrogen, Karlsruhe, Germany) is added to each well, and MTPs are incubated for 3 hours at 37° C., before the fluorimetric analysis is done (544/590 nm). The resulting values are approximately 30,000 in the case of untreated, non-infected cells, and approximately 6,000 in the case of untreated infected cells. In the low concentration range, the EC50 values of the test substances are determined as the concentration of the treated infected cells, in which the fluorescence is 50% of the untreated non-infected cells (in each case relative to the values of the untreated infected cells). In addition, in the high concentration range, the CC50 values of the test substances are determined as the concentration of the treated infected cells, in which the fluorescence is 50% of the untreated, non-infected cells (in each case relative to the values of the untreated infected cells).

[3] = tested on: HIV-1NL4-3 Wild Type; test: Luminescence reduction assay, MT4 cells infected with HIV-1NL4-3 luciferase reporter virus, wild type; details: 2% FCS
From the text: as §1, §2

[4] = Human immunodeficiency virus 1, MT4, read-out: EC50 (μM) MT4 Cells HIV-1NL4-3 K103N-Y181C 2% FCS, MT4 cells, HIV-1NL4-3 K103N-Y181C, 2% FCS
[5] = Human immunodeficiency virus 1, MT4, MT4 cells

Q: For COc1cc(OC(F)(F)F)cc(-c2cc(C(=O)N3CCNC(=O)C3)nn2-c2cccnc2)c1 [Example 85, 4-({5-[3-Methoxy-5-(trifluoromethoxy)phenyl]-1-(pyridin-3-yl)-1H-pyrazol-3-yl}carbonyl)piperazin-2-one], which EC50 [1, 4] is on record?
A: Its EC50 is 0.123 µM.

Q: And the EC50 [2, 5]?
A: The EC50 was 0.302 µM.

Q: What about the EC50 [3, 5] of the same molecule?
A: Its EC50 is 0.05 µM.

Q: With O=C1CN(C(=O)c2cc(-c3ccnc(Cl)c3)n(-c3cccc(Cl)c3)n2)CN1 [Example 114, 1-{[1-(3-Chlorophenyl)-5-(2-chloropyridin-4-yl)-1H-pyrazol-3-yl]carbonyl}imidazolidin-4-one] as the molecule, how does the EC50 [1, 4] read?
A: The EC50 was 0.171 µM.

Q: What about the EC50 [2, 5] of the same molecule?
A: The EC50 was 0.063 µM.

Q: What about the EC50 [3, 5] of the same molecule?
A: The EC50 was 0.007 µM.

Q: How did the EC50 ([1]; read-out: EC50 (μM) MT4 Cells HIV-1NL4-3 K103N-Y181C 2% FCS, MT4 cells, HIV-1NL4-3 K103N-Y181C, 2% FCS) turn out when O=C(c1cc(-c2cc(F)cc(Cl)c2)n(-c2cccnc2)n1)N1CC[S+]([O-])C1 (racemic) [Example 6-1, [5-(3-Chloro-5-fluorophenyl)-1-(pyridin-3-yl)-1H-pyrazol-3-yl](1-oxido-1,3-thiazolidin-3-yl)methanone] was run?
A: The EC50 was > 3.3 µM.

Q: What about the EC50 ([2]; MT4 cells) of the same molecule?
A: The EC50 was 1.49 µM.

Q: And the EC50 ([3]; MT4 cells)?
A: The EC50 was 0.255 µM.

Q: With O=C1CN(C(=O)c2cc(-c3cc(Br)cc(OC(F)(F)F)c3)n(-c3ccnc(C(F)(F)F)c3)n2)CN1 [Example 50, 1-({5-[3-Bromo-5-(trifluoromethoxy)phenyl]-1-[2-(trifluoromethyl)pyridin-4-yl]-1H-pyrazol-3-yl}carbonyl)imidazolidin-4-one] as the molecule, how does the EC50 [1, 4] read?
A: The EC50 was 0.167 µM.

Q: What about the EC50 [2, 5] of the same molecule?
A: Its EC50 is 1.86 µM.

Q: What about the EC50 [3, 5] of the same molecule?
A: Its EC50 is 0.102 µM.

Q: How did the EC50 [1, 4] turn out when Cc1ccc(-n2nc(C(=O)N3CNC(=O)C3)cc2-c2cc(Br)cc(OC(F)(F)F)c2)cn1 [Example 46, 1-({5-[3-Bromo-5-(trifluoromethoxy)phenyl]-1-(6-methylpyridin-3-yl)-1H-pyrazol-3-yl}carbonyl)imidazolidin-4-one] was run?
A: Its EC50 is 0.007 µM.

Q: What about the EC50 [2, 5] of the same molecule?
A: Its EC50 is 0.097 µM.

Q: What about the EC50 [3, 5] of the same molecule?
A: The EC50 was 0.007 µM.

Q: Which results are given for O=C1CN(C(=O)c2cc(-c3cc(F)cc(OC(F)F)c3)n(-c3ccnc(Cl)c3)n2)CN1 [Example 68, 1-({1-(2-Chloropyridin-4-yl)-5-[3-(difluoromethoxy)-5-fluorophenyl]-1H-pyrazol-3-yl}carbonyl)imidazolidin-4-one]?
A: EC50 [1, 4]: 0.193 µM; EC50 [2, 5]: 0.326 µM; EC50 [3, 5]: 0.062 µM

Q: O=C(c1cc(-c2cc(F)cc(OC(F)(F)F)c2)n(-c2cccnc2)n1)N1CCOCC1 [Example 61, {5-[3-Fluoro-5-(trifluoromethoxy)phenyl]-1-(pyridin-3-yl)-1H-pyrazol-3-yl}(morpholin-4-yl)methanone] was tested. Which EC50 [1, 4] did it give?
A: The EC50 was 0.767 µM.

Q: And the EC50 [2, 5]?
A: Its EC50 is 0.6 µM.

Q: And the EC50 [3, 5]?
A: Its EC50 is 0.092 µM.

Q: Which results are given for COc1cc(OC(F)(F)F)cc(-c2cc(C(=O)N3CNC(=O)C3)nn2-c2cccnc2)c1 [Example 84, 1-({5-[3-Methoxy-5-(trifluoromethoxy)phenyl]-1-(pyridin-3-yl)-1H-pyrazol-3-yl}carbonyl)imidazolidin-4-one]?
A: EC50 [1, 4]: 0.008 µM; EC50 [2, 5]: 0.048 µM; EC50 [3, 5]: 0.01 µM

Q: With O=C1CN(C(=O)c2cc(-c3cc(F)cc(Cl)c3)n(-c3cncc(Cl)c3)n2)CCN1 [Example 10] as the molecule, how does the EC50 [1, 4] read?
A: Its EC50 is > 3.3 µM.

Q: What about the EC50 [2, 5] of the same molecule?
A: Its EC50 is 1.71 µM.

Q: And the EC50 [3, 5]?
A: Its EC50 is 0.149 µM.

Q: Which results are given for O=C1CN(C(=O)c2cc(-c3cc(Br)cc(OC(F)(F)F)c3)n(-c3ccc(Cl)nc3)n2)CCN1 [Example 35, 4-({5-[3-Bromo-5-(trifluoromethoxy)phenyl]-1-(6-chloropyridin-3-yl)-1H-pyrazol-3-yl}carbonyl)piperazin-2-one]?
A: EC50 [1, 4]: 0.01 µM; EC50 [2, 5]: 0.232 µM; EC50 [3, 5]: 0.042 µM

Q: What does the source list for O=C1CN(C(=O)c2cc(-c3cc(F)cc(Cl)c3)n(-c3ccc(Cl)nc3)n2)CCN1 [Example 8, 4-{[5-(3-Chloro-5-fluorophenyl)-1-(6-chloropyridin-3-yl)-1H-pyrazol-3-yl]carbonyl}piperazin-2-one]?
A: EC50 [1, 4]: 0.29 µM; EC50 [2, 5]: 0.205 µM; EC50 [3, 5]: 0.06 µM

Q: What does the source list for O=C1CN(C(=O)c2cc(-c3cc(F)cc(OC(F)F)c3)n(-c3cccnc3)n2)CN1 [Example 66, 1-({5-[3-(Difluoromethoxy)-5-fluorophenyl]-1-(pyridin-3-yl)-1H-pyrazol-3-yl}carbonyl)imidazolidin-4-one]?
A: EC50 [1, 4]: 0.058 µM; EC50 [2, 5]: 0.083 µM; EC50 [3, 5]: 0.013 µM
